Data set [1] relates to human peripheral blood lymphocytes. In words: Lipopolysaccharide-stimulated TNFα release from human peripheral blood lymphocytes. To be noted: for EC50: Homo sapiens, Lymphocyte, LPS-stimulated TNFα release, read-out: PBL/TNFα EC50. The data set is classed as cell-based. On the procedure:
The compounds of structural formulae (I) and (II) also were tested for an ability to reduce TNFα secretion in human peripheral blood lymphocytes. The ability to reduce TNFα secretion is related to the EC50 values (i.e., the effective concentration of the compound capable of inhibiting 50% of the total TNFα). To assess the ability of a compound to reduce TNFα secretion in human peripheral blood lymphocytes (PBL), the following tests were performed. […] Heparinized blood (approximately 30 mL) drawn from human volunteers was mixed 1:1 with Dulbecco's modified phosphate-buffered saline. This mixture was mixed 1:1 with HISTOPAQUE and centrifuged at 1,500 rpm at room temperature without braking in the swinging bucket of a Beckman model TJ6 centrifuge. Erythrocytes were centrifuged to the bottom of the tubes, and serum remained at the surface of the tubes. A layer containing lymphocytes sedimented between the serum and HISTOPAQUE® layers, and was removed by aspiration to a fresh tube. The cells were quantified and adjusted to 3×10^6 cells/mL and a 100 μL aliquot is placed into the wells of a 96 well plate. Test compounds and RPMI media (Gibco/BRL Life Sciences) are added to each of the wells 15 minutes prior to addition of bacterial LPS ([…]). The mixture was allowed to incubate for 20 hours at 37° C. in a humidified chamber. The cells then were separated by centrifuging at 800 rpm for 5 minutes at room temperature. An aliquot of 80 µL of supernatant was transferred to a new plate or determination of TNFα concentration. TNFα protein in the cell supernatant fluids was measured using a commercially available enzyme-linked immunosorbent assay (ELISA) (CYTOSCREEN® Immunoassay Kit from Biosource International). The cell-based assay provided the following results for various compounds of the present invention. The EC50 values (i.e., effective concentration of the compound capable of inhibiting 50% of the total TNFα ) illustrate the ability of the present compounds to inhibit LPS-stimulated TNFα release from human PBL.

The target in data set [2] is T1, human recombinant PDE4 (Homo sapiens, UniProt Q07343).
T1 construct: made in house; host or cells: Saccharomyces cerevisiae BJ2-54 (strain YI23 harboring HDUN2.32, if PDE4B)
T1 sequence (Q07343 1-564 isoform Q07343-2): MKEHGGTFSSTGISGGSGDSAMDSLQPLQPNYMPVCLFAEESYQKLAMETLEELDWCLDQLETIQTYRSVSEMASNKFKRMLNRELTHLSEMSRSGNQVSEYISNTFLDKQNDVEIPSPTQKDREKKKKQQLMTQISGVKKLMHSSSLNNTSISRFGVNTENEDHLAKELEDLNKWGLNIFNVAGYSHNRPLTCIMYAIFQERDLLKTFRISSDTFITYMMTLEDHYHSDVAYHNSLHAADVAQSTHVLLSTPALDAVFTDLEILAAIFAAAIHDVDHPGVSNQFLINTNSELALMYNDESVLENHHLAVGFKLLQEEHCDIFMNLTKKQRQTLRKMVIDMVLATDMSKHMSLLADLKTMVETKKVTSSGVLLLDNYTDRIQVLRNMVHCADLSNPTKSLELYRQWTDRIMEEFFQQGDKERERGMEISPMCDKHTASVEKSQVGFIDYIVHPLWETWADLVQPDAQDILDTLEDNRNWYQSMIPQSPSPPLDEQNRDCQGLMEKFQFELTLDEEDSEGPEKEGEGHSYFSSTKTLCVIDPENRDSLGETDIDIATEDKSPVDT
As to the kind of experiment: Inhibition of human recombinant PDE4 (IC50). The class given is biochemical.

Data set [3] relates to recombinant human PDE4. Conditions: reported value; read-out: IC50 with respect to recombinant human PDE4; cited from earlier work.
The target of data set [4] is T2, PDE1B (Homo sapiens, UniProt Q01064).
T2 construct: made in house; host or cells: Saccharomyces cerevisiae BJ2-54
As to the kind of experiment: PDE inhibition, PDE1B. The class given is biochemical.

In data set [5] the target is T3, PDE2 (Homo sapiens, UniProt O00408).
T3 construct: made in house; host or cells: Saccharomyces cerevisiae, strain YI34
T3 sequence (O00408 whole entry): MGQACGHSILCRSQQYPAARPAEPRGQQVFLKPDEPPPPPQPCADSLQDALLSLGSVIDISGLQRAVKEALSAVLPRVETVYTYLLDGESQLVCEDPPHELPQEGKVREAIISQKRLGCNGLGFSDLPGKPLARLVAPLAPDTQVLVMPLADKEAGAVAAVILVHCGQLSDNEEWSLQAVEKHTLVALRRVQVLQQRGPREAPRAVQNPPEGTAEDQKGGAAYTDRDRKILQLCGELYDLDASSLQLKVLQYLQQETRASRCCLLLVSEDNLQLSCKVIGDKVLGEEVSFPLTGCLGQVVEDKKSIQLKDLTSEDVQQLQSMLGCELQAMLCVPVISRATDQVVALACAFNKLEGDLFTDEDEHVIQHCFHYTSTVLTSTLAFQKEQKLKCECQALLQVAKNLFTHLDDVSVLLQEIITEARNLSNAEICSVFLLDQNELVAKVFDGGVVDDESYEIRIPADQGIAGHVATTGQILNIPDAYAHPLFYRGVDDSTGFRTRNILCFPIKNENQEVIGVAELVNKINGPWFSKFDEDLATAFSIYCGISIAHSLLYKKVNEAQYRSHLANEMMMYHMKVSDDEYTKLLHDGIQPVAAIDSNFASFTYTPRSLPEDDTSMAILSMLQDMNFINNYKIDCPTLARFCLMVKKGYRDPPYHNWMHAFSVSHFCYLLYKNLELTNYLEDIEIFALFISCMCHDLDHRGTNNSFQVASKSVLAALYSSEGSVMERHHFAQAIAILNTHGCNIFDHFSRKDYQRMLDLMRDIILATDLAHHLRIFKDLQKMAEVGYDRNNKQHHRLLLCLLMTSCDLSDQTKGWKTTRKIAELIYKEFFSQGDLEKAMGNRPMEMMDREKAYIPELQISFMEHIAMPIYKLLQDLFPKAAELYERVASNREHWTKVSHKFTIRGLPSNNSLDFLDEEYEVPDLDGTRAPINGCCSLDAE
As to the kind of experiment: PDE inhibition, PDE2. The data set is classed as biochemical.

In data set [6] the target is T4, PDE1A (Homo sapiens, UniProt P54750).
T4 construct: contained the complete open reading frame of PDE1A3; made in house; host or cells: baculovirus-infected Sf9 cells
In words: PDE inhibition, PDE1A. The data set is classed as biochemical.

Data set [7] concerns the target T5, human recombinant PDE4B (Homo sapiens, UniProt Q07343).
T5 construct: made in house; host or cells: Saccharomyces cerevisiae, strain YI23 harboring HDUN2.32
In words: PDE inhibition, PDE4B. The data set is classed as biochemical.

In data set [8] the target is T6, PDE7 (Homo sapiens, UniProt Q13946).
T6 construct: made in house; host or cells: Saccharomyces cerevisiae BJ2-54
T6 sequence (Q13946 whole entry): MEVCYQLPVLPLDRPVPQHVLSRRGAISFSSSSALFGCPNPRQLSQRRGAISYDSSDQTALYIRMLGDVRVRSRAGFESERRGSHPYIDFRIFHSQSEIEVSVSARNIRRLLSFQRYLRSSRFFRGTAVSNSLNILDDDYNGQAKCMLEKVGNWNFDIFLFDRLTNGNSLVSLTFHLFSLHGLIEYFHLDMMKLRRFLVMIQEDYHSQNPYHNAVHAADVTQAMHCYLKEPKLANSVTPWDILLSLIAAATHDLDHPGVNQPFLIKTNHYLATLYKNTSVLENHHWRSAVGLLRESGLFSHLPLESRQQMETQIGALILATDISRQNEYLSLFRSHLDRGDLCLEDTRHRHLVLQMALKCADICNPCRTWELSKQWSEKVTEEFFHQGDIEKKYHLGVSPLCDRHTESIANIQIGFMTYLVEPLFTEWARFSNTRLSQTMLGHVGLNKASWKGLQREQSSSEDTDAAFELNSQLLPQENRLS
As to the kind of experiment: PDE inhibition, PDE7. The data set is classed as biochemical.

Data set [9] deals with T7, PDE5 (Homo sapiens, UniProt O76074).
T7 construct: made in house; host or cells: Saccharomyces cerevisiae BJ2-54
In words: PDE inhibition, PDE5. The class given is biochemical.

Data set [10] relates to serum TNFα. In words: Combined mouse endotoxin-stimulated TNFα release assay (serum TNFα). Conditions: LPS mouse model. The class given is in vivo, female Balb/c mice. On the procedure: The purpose of this study was to determine the efficacy of PDE4 inhibitors in vivo in an LPS mouse model together with a determination with respect to central nervous system (CNS) side-effects manifested by a decrease in spontaneous mobility. The test animals were female Balb/c mice, having an average weight of about 20 g. The PDE4 inhibitors, formulated in 30% Cremophor® EL, were administered via intraperitoneal (i.p.) injections at doses of 0.1, 1.0, 10.0, and 100 mg/kg. Individual dose volumes (about […]) were adjusted based on the body weights measured. One hour later, 5 mg/kg LPS in a final volume of 200 μL was injected via the tail vein to each animal. Ninety minutes following the LPS treatment, the animals were bled and serum samples were collected before being stored at −70° C. until assayed. For efficacy determination, the serum samples were diluted two-fold and TNFα levels were determined using the CYTOSCREEN® Immunoassay Kit (Biosource International) The data were averaged between triplicate sample subjects for each of the tested compounds.

Data set [11] addresses T8, PDE1C (Homo sapiens, UniProt Q14123).
T8 construct: Plasmid Hcam3aBB contained the complete open reading frame of PDE1C3; made in house; host or cells: baculovirus-infected Sf9 cells
As to the kind of experiment: PDE inhibition, PDE1C. The data set is classed as biochemical.

Data set [12] deals with T9, PDE3A (Homo sapiens, UniProt Q14432).
T9 construct: Plasmid pBB-PDE3A contained the complete open reading frame of PDE3A; made in house; host or cells: baculovirus-infected Sf9 cells (washed 100,000 x g pellet, not purified)
T9 sequence (Q14432 whole entry): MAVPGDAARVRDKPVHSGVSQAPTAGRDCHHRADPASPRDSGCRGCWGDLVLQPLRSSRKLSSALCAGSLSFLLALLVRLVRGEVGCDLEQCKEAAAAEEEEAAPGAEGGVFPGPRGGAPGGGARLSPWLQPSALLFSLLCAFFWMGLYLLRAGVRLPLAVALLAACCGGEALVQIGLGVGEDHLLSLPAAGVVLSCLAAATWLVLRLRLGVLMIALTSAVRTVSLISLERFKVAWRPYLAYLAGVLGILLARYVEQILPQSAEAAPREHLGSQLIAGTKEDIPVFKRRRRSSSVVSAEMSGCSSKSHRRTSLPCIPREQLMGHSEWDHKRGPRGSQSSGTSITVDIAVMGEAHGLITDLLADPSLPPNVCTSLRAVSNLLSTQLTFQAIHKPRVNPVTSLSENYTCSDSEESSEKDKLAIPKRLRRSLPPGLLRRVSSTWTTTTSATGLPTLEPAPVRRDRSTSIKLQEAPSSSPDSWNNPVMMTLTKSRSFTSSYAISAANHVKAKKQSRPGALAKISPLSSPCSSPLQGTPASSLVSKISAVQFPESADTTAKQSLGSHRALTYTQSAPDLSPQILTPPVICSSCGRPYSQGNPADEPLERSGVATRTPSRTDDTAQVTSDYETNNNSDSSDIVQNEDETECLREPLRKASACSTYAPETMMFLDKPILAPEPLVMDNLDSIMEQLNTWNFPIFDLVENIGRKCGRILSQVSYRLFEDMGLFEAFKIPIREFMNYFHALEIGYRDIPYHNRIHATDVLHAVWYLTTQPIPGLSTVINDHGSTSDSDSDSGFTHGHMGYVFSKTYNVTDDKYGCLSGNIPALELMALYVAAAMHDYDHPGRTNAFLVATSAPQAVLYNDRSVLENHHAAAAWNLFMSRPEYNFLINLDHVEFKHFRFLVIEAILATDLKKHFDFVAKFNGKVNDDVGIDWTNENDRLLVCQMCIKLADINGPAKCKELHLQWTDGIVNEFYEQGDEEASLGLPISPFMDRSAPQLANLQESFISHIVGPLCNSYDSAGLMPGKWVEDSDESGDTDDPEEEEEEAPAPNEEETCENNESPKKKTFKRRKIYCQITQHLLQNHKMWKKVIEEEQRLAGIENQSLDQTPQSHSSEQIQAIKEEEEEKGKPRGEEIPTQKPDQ
As to the kind of experiment: PDE inhibition, PDE3A. The data set is classed as biochemical.

The subject of data set [13] is spontaneous mobility. In words: Locomotor activity / sedative side-effect visual scoring. The class given is in vivo, female Balb/c mice. Also noted: key: Vehicle control animals were rated a single “+”; animals that were effectively immobilized and stretched out on the bottom of the cage with little detectable movement were rated as “++++.”. To be noted: 10 mg/kg i.p., mice. The procedure:
The purpose of this study was to determine the efficacy of PDE4 inhibitors in vivo in an LPS mouse model together with a determination with respect to central nervous system (CNS) side-effects manifested by a decrease in spontaneous mobility.
The test animals were female Balb/c mice, having an average weight of about 20 g. The PDE4 inhibitors, formulated in 30% Cremophor® EL, were administered via intraperitoneal (i.p.) injections at doses of 0.1, 1.0, 10.0, and 100 mg/kg. Individual dose volumes (about […]) were adjusted based on the body weights measured. One hour later, 5 mg/kg LPS in a final volume of 200 μL was injected via the tail vein to each animal. Ninety minutes following the LPS treatment, the animals were bled and serum samples were collected before being stored at −70° C. until assayed.
For side-effect profiling, a subjective visual scoring system was utilized at 5 min and 20min after administration of PDE4 inhibitors. […] In this instance, the subjects could be monitored continuously over pre-set intervals.
Movement of the X-Y plane, or rearing up on the hind legs, was quantified by counting the number of “light-beam” crosses per unit of time. […] The quantitative scoring correlated well with the subjective measurements described above.

Consider eight compounds from US6372777B1, “Cyclic AMP-specific phosphodiesterase inhibitors” (ICOS Corporation, priority 1999, dated 2002).

T5 sequence (Q07343 whole entry): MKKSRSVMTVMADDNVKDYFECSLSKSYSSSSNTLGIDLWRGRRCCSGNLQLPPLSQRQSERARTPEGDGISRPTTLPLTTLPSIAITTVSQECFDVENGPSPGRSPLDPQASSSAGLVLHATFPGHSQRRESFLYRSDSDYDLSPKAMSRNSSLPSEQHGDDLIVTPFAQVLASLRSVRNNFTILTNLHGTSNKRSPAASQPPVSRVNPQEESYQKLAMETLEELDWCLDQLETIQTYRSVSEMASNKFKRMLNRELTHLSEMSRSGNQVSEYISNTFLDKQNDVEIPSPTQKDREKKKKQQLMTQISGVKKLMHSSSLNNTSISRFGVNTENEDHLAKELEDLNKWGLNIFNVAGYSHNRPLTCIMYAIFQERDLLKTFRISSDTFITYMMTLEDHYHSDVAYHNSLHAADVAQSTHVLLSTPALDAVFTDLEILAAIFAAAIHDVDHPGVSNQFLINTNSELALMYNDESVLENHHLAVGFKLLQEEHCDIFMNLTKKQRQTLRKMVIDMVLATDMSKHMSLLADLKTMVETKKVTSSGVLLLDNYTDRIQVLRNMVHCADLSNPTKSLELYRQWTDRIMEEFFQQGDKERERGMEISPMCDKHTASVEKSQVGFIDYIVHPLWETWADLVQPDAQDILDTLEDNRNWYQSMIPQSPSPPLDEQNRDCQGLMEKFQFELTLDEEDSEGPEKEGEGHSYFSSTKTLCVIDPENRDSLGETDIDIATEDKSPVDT

In general, IC50 refers to the concentration that inhibits the measured activity by half. `CCOC(=O)c1cc(-c2ccccc2)n(-c2cccc(Cl)c2)c1C` [Example 3, 1-(3-Chlorophenyl)-2-methyl-5-phenyl-1H-pyrrole-3-carboxylic acid ethyl ester]: the EC50 in [1] is 1.5 µM. In data set [2], the IC50 turned out to be 0.2 µM.

`CCOC(=O)c1cc(C)n(-c2cccc(N)c2)c1-c1ccccc1` [Example 40, 1-(3-Aminophenyl)-5-methyl-2-phenyl-1H-pyrrole-3-carboxylic acid ethyl ester]: the EC50 in data set [1] was 6.72 µM. Besides, the IC50 in data set [2] turned out to be 1.29 µM.

As for `COC(=O)N1CC(c2ccc(OC)c(OC3CCCC3)c2)C(C)(C(C)=O)C1` (stereo not drawn), in data set [3], the IC50 is approximately 0.002 µM.

`COc1ccc(C2CNC(=O)C2)cc1OC1CCCC1` (stereo not drawn) [Rolipram, reference compound]: the “LPS-induced TNFα secretion from human lymphocytes” value in data set [1] (preliminary experiments) is recorded as “inhibit LPS-induced TNFα secretion from human lymphocytes in a dose-dependent fashion”. Further, the IC50 in [3] is approximately 0.2 µM.

`CCOC(=O)c1cc(-c2ccccc2)n(-c2cccc([N+](=O)[O-])c2)c1C` [Example 22, 2-Methyl-1-(3-nitrophenyl)-5-phenyl-1H-pyrrole-3-carboxylic acid ethyl ester]: the 50% inhibitory concentration (IC50) in data set [4] worked out at 21 µM; in data set [5] it was 4.5 µM; in [6], 35.5 µM; in [7], 0.15 µM; in [8], 10.6 µM; in [9], 12.5 µM. Besides, the results for the concentration for half-maximal inhibition (IC50) in [11], in data set [12] and in data set [2] were 21.8 µM, 89 µM and 0.15 µM, respectively. The results for the “% TNFα Inhibition” value in [10] (1 mg/kg i.p.), in data set [10] (10 mg/kg i.p.) and in data set [10] (100 mg/kg i.p.) were 13%, 84% and 100%, respectively. Further, in data set [1], the EC50 stood at 0.87 µM.

Regarding `CCOC(=O)c1cc(C)n(-c2cccc(Cl)c2Cl)c1-c1ccccc1` [Example 42, 1-(2,3-Dichlorophenyl)-5-methyl-2-phenyl-1H-pyrrole-3-carboxylic acid ethyl ester], in data set [1], the EC50 is 100 µM. The half-maximal inhibitory concentration (IC50) in [2] was determined as 1.49 µM.

Regarding `COC(=O)N1C[C@@H](c2ccc(OC)c(OC3CCCC3)c2)[C@](C)(C(C)=O)C1` (relative stereo) [Comparative Example, trans-3-(3-cyclopentoxy-4-methoxyphenyl)-1-methoxycarbonyl-4-methyl-4-(methylcarbonyl)pyrrolidine, reference compound], the “% TNFα Inhibition” value was found to be 43% in [10] (1 mg/kg i.p.), 100% in data set [10] (10 mg/kg i.p.) and 100% in data set [10] (100 mg/kg i.p.). In addition, in data set [13], the “Sedative Effect” value is “+”.

For the compound `CCOC(=O)c1cc(C)n(-c2ccccc2)c1-c1ccccc1` [Example 21, 5-Methyl-1,2-diphenyl-1H-pyrrole-3-carboxylic acid ethyl ester], the EC50 in [1] is 10 µM.
